Laboratory results from patent US20240076615A1, “MODELS AND METHODS FOR RAPID SCREENING OF THE EFFICACY OF IMMUNOREGULATING DRUGS” (priority 2022, published 2024).

Test system: tumor cells and immune cells of a patient with ovarian cancer
Assay: IO-FIVE capsule tube test in mice, ovarian cancer patient (Example 3), CTG and FACS
Assay type: in vivo, human
Settings: day 10; tumor sample after addition of autologous TIL cells
Excerpt: The following was collected for cell identification: a single cell suspension of tumor tissue samples of patients before purification, tumor cells after purification, enriched immune cells (containing CD3+T) eluted from the column, and a cell suspension in which tumor cells after purification and immune cells were mixed in a certain ratio (1.5:1 to 15:1), to yield a final cell count of 0.1 to 0.3 million cells. (Note that if the viability of immune cells eluted from the column was less than 20%, then downstream experiments and operations could not be performed, especially since activated immune cells were more likely to undergo activation-induced apoptosis). […]
According to the data analyzed in step of flow cytometry, the CD45− tumor cells and CD3+ T cells were mixed in a certain ratio (about 1.5:1-15:1). […]
3-21 days after administration (day 10 here), the mice were euthanized, and the PVDF tubes were removed. Cell viability was quantified by the CellTiter-Glo chemiluminescence method, and the relative ratio and basic phenotype of tumor cells and immune cells in PVDF tubes were detected by flow cytometry.
The results were analyzed by Flowjo software.

**Q.** How did the “viability of total cells / overall tumor viability (CTG)” value turn out when `NC(=O)c1cccc2cn(-c3ccc([C@@H]4CCCNC4)cc3)nc12` [PARP inhibitor, Niraparib] was run?
**A.** The value was “neither PD1 antibody nor PARP inhibitor mono-therapy could inhibit”.
